The target in one assay is T1, Acetylcholinesterase (Torpedo californica, UniProt P04058). The arrangement: species or system Tetronarce californica.
T1 sequence (P04058 whole entry): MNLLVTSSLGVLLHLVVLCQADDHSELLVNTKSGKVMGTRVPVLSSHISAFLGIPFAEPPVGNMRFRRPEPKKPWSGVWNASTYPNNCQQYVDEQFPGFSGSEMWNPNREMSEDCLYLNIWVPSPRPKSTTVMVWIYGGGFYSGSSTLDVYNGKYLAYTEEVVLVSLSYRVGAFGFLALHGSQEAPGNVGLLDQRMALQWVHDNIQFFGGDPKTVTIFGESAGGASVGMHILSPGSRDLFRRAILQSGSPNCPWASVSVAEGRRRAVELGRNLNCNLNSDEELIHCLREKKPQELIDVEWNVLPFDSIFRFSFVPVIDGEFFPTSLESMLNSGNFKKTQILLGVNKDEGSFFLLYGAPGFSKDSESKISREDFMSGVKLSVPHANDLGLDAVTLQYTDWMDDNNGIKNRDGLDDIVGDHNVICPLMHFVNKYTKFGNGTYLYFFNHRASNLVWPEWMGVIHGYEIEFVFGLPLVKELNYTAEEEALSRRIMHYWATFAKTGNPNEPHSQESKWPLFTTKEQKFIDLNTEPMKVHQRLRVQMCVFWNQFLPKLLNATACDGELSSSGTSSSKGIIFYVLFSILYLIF
Description: (§1) Inhibitory activity against Acetylcholinesterase
One may read the IC50 as the midpoint of a concentration-inhibition curve. Low readings indicate greater potency in that assay, high ones weaker potency in that assay. In turn, `C=CCCCN(C)C` displayed a half-inhibitory concentration (IC50) of 1130 µM. On the same count and under the same terms, under `CC(=O)CCC[N+](C)(C)C` stands 84.8 µM; under `C[N+]1(C)CCO[C@@](O)(c2ccc([N+](=O)[O-])cc2)C1`, 5120 µM.

On to `C[N+](C)(C)CCCCI`, for which the IC50 was 471 µM.

`C=CCC[N+](C)(C)C` came in with a half-inhibitory concentration (IC50) of 848 µM. The same measure, in the same setting: under `CCOCC[N+](C)(C)C` stands 1160 µM. On the same count and under the same terms, under `C[N+](C)(C)CCCBr` stands 87.9 µM; under `C[N+](C)(C)CCCl` [CHLORMEQUAT CHLORIDE], 2390 µM; under `C[N+]1(C)CCO[C@@](O)(c2ccc(N)cc2)C1`, 691 µM. On the same count and under the same terms, under `C[N+]1(C)CCO[C@@](O)(C(F)(F)F)C1` stands 3830 µM; under `CC(=O)Nc1cccc([N+](C)(C)C)c1`, 1000 µM. `C[C@@]1(O)C[N+](C)(C)CCO1`: it took 1730 µM to reach half-maximal inhibition (IC50). The same measure, in the same setting: under `C[N+]1(C)CCO[C@H](O)C1` stands 1760 µM; under `C[N+]1(C)CCO[C@@](O)(c2ccc(Cl)cc2)C1`, 8130 µM. Same read-out and setting: under `C[N+](C)(C)CCS` stands 440 µM; under `CC(=O)Nc1ccc([C@@]2(O)C[N+](C)(C)CCO2)cc1`, 2070 µM; under `C=CC[N+](C)(C)C`, 2920 µM. On the same count and under the same terms, under `C[N+](C)(C)CCCCBr` stands 597 µM; under `C[N+]1(C)CCO[C@@](O)(c2ccc(C#N)cc2)C1`, 11600 µM. For `C[N+](C)(C)c1cccc(N)c1`, it took 192 µM to reach half-maximal inhibition (IC50). For `CC(C)(C)[C@@]1(O)C[N+](C)(C)CCO1`, the IC50 came out at 3710 µM. On the same count and under the same terms, under `CCCC(=O)OCC[N+](C)(C)C` stands 229 µM. Still for that read-out and setting: under `CCCC(=O)SCC[N+](C)(C)C` stands 126 µM; under `CCCCCC[N+](C)(C)C`, 816 µM. On the same count and under the same terms, under `C[N+](C)(C)CCCCCBr` stands 534 µM; under `CCSCC[N+](C)(C)C`, 1510 µM.

In the next assay the target is T1, Acetylcholinesterase. The source holds these as a separate data set.
Description: as §1
For `C[N+](C)(C)c1cccc([N+](=O)[O-])c1`, the IC50 was determined as 628 µM.

The target of the next assay is Acetylcholinesterase (Homo sapiens, UniProt P22303).
Acetylcholinesterase (Homo sapiens, UniProt P22303), sequence (P22303 whole entry): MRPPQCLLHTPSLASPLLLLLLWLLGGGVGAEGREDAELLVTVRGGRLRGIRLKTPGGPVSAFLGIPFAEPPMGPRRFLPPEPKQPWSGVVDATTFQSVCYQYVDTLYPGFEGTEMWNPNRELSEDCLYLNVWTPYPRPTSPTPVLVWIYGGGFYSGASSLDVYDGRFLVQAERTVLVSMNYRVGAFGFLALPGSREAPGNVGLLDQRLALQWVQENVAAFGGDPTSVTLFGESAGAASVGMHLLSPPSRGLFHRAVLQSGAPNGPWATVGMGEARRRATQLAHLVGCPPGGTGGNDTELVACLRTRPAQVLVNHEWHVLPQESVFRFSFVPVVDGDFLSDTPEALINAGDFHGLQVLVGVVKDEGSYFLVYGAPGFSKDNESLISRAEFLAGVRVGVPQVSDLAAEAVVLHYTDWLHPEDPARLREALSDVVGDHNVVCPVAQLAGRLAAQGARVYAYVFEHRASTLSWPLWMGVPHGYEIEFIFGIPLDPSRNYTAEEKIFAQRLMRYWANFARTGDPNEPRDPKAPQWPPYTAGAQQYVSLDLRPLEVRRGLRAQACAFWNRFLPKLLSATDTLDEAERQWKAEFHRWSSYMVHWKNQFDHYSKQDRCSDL
Description: as §1
The compound `CN1CC[C@@]2(C)c3cc(OC(=O)Nc4ccc(Cl)cc4)ccc3N(C)C12` (some centres not stated) came in with a concentration for half-maximal inhibition (IC50) of 1.8 µM. `CN1CC[C@@]2(C)c3cc(OC(=O)NCc4ccccc4)ccc3N(C)C12` (some centres not stated): it took 0.46 µM to reach half-maximal inhibition (IC50). `CCN(CC)C(=O)Oc1ccc2c(c1)[C@]1(C)CCN(C)C1N2C` (some centres not stated) registered an IC50 of 40 µM. `CNC(=O)Oc1ccc2c(c1)[C@]1(C)CC[N+](C)(C)C1N2C` (some centres not stated) had an IC50 of 0.034 µM.

In the case of `CN1CC[C@@]2(C)c3cc(OC(=O)Nc4ccccc4)ccc3N(C)C12` (some centres not stated), the half-inhibitory concentration (IC50) was found to be 0.35 µM. The compound `CN(C(=O)NCc1ccccc1)C(=O)Oc1ccc2c(c1)[C@]1(C)CCN(C)C1N2C` (some centres not stated) came in with an IC50 of 6.3 µM. `CN(C)C(=O)Oc1ccc2c(c1)[C@]1(C)CCN(C)C1N2C` (some centres not stated) came in with an IC50 of 0.97 µM. The compound `CC(C)NC(=O)Oc1ccc2c(c1)[C@]1(C)CCN(C)C1N2C` (some centres not stated) yielded an IC50 of 35 µM.

`CCCCNC(=O)Oc1ccc2c(c1)[C@]1(C)CCN(C)C1N2C` (some centres not stated): the half-inhibitory concentration (IC50) worked out at 0.152 µM.

In the next assay the target is Acetylcholinesterase (Electrophorus electricus, UniProt O42275).
Acetylcholinesterase (Electrophorus electricus, UniProt O42275), sequence (O42275 whole entry): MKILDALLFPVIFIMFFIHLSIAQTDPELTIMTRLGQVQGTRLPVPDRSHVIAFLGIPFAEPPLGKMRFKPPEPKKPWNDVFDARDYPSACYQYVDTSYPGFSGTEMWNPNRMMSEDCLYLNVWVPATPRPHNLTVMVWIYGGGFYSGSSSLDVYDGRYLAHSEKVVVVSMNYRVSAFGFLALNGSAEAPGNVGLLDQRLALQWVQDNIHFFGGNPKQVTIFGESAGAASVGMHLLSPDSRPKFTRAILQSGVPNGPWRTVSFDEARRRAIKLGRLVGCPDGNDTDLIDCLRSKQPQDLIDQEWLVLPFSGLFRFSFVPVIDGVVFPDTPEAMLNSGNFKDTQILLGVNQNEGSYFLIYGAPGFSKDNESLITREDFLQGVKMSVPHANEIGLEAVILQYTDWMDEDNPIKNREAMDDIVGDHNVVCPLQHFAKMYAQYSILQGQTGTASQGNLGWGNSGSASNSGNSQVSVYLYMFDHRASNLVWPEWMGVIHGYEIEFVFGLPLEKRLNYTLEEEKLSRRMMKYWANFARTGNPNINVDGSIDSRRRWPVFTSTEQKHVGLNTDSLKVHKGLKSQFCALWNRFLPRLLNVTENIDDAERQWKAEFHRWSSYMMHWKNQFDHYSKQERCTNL
Description: as §1
Regarding `CC(=O)Oc1cccc([N+](C)(C)C)c1`, inhibition was half-maximal at 3.01 µM (IC50). On the same count and under the same terms, under `COc1ccc(C)c([N+](C)(C)C)c1` stands 345 µM. On to `CC(=O)Oc1ccc(C)c([N+](C)(C)C)c1`, for which the half-inhibitory concentration (IC50) amounted to 5.34 µM. Same read-out and setting: under `Cc1ccc([N+](C)(C)C)cc1O` stands 3.11 µM. Same read-out and setting: under `Cc1c(O)cccc1[N+](C)(C)C` stands 141 µM; under `COc1cccc([N+](C)(C)C)c1`, 597 µM; under `C[N+](C)(C)c1cccc(O)c1`, 0.973 µM. `CC(=O)Oc1cccc([N+](C)(C)C)c1C` registered a 50% inhibitory concentration (IC50) of 40.8 µM. Still for that read-out and setting: under `CCC(=O)Oc1cccc([N+](C)(C)C)c1C` stands 754 µM.

`COc1cc([N+](C)(C)C)ccc1C` showed an IC50 of 122 µM. In the case of `Cc1ccc(O)cc1[N+](C)(C)C`, the midpoint of inhibition, the IC50, lay at 2.83 µM. Same read-out and setting: under `CCC(=O)Oc1cccc([N+](C)(C)C)c1` stands 5.97 µM. On the same count and under the same terms, under `CCC(=O)Oc1ccc(C)c([N+](C)(C)C)c1` stands 69.1 µM; under `CCC(=O)Oc1cc([N+](C)(C)C)ccc1C`, 3.77 µM. Same read-out and setting: under `COc1cccc([N+](C)(C)C)c1C` stands 239 µM. With `CC(=O)Oc1cc([N+](C)(C)C)ccc1C`, 0.659 µM corresponded to half-maximal inhibition (IC50).

For the origin of these results see ChEMBL document CHEMBL1129057, “Structure-based alignment and comparative molecular field analysis of acetylcholinesterase inhibitors” (J Med Chem, 1996).
